In patent US5380755A, “Alkyl and alkylbenzyl ethers of substituted hydroquinones” (The Du Pont Merck Pharmaceutical Company, priority 1992, dated 1995):

Key:
[1] = target: T1, MAO B (Rattus norvegicus, UniProt P19643); experiment: in vitro inhibitory action on type B monoamine oxidase in rat brain tissue (J. Neurochem., 1983, 40, 1534); assay type: biochemical; settings: 200 mM Phenethylamine[14-C] as substrate
T1 construct: two types A and B monoamine oxidase in rat brain tissue; from tissue; host or cells: rat brain
T1 sequence (P19643 1-520): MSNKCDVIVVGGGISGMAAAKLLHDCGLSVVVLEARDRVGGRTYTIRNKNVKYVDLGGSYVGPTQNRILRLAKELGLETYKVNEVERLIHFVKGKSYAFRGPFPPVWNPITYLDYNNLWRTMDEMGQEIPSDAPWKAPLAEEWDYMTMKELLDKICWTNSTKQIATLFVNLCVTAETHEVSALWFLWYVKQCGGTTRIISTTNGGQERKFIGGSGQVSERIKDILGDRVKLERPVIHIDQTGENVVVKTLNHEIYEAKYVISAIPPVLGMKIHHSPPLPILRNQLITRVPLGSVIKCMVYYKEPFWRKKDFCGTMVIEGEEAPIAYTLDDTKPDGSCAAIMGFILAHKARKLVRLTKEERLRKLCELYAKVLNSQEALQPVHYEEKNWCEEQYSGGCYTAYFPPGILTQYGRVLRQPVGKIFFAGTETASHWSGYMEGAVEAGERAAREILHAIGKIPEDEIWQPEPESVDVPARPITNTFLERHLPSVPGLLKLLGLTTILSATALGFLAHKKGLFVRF
Source text: This test measures the in vitro inhibitory action of the two types A and B monoamine oxidase in rat brain tissue.

[2] = tested on: MAO A / MAO B; experiment: in vitro inhibitory action on types A and B monoamine oxidase in rat brain tissue: A/B selectivity; assay type: biochemical; settings: ratio MAO A / MAO B, 5-Hydroxytryptamine[14-C] 1.0 mM (MAO A), Phenethylamine[14-C] 200 mM (MAO B)
Source text: The compounds of the present invention are useful in the inhibition of monoamine oxidases. […] This test measures the in vitro inhibitory action of the two types A and B monoamine oxidase in rat brain tissue. […] Finally, it is expected that the compounds of the present invention may be useful in treating neurological disorders including memory disorders, cognitive dysfunction, dementia, dementia of the Alzheimer's type, Parkinson's syndrome, depression, hyperactive syndrome, schizophrenia, and changes in temperament.

Row | Structure (SMILES) | IC50 [1] [µM] | A/B [2]
1 | CC(=O)c1cc(OCc2cccc(Cl)c2)ccc1OCCCO [Example 32] | 0.1 | 400
2 | C#CCN(C)C(C)COc1ccc(OCc2cccc(Cl)c2)c(C(C)=O)c1 (centres unmarked) [Example 8, N-2-[3'-Acyl-4'-(m-chlorophenylmethyloxy)phenoxy]-1-methylethyl-N-methylpropargylamine] | 0.003 | < 300
3 | CC(=O)c1cc(OCc2cc(C(F)(F)F)cc(C(F)(F)F)c2)ccc1OCCCC#N [Example 6, 4-{2'-Acetyl-4'-[(3,5-trifluoromethylphenyl)methyloxy]phenoxy}-butyronitrile] | 0.1 | > 10000
4 | CCC(=O)c1cc(OCc2ccc(F)cc2)ccc1OCCCC#N [Example 33] | > 100 | –
5 | CNC(C)COc1ccc(OCc2cccc(Cl)c2)c(C(C)=O)c1 (centres unmarked) [Example 19] | 7 | –
